Legend:
[1] = target: T1, glutathione S-transferase (GST)-linked full-length human Syk protein (Homo sapiens, UniProt P43405); assay: Syk enzyme assay; assay type: biochemical; conditions: 0.83 nM Syk, time-resolved fluorescence; read-out: IC50 of Syk-inhibitory activity
T1 construct: glutathione S-transferase (GST)-linked full-length human Syk protein; purchased Carna Biosciences; host or cells: Baculovirus expression system
Summary of the method: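 Phosphotyrosine on a biotin-peptide substrate (0.5 μM) was read by time-resolved fluorescence at 615 and 665 nm with Eu-anti-pTyr antibody and APC-streptavidin after 1 h EDTA stop.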

[2] = test system: THP-1 cells (TNFα secretion on human IgG-coated plate); assay: TNFα generation assay; assay type: cell-based; conditions: IFN-γ differentiated THP-1 cells, 7 hours, AlphaLISA, read-out: IC50 of TNFα generation inhibitory activity
Summary of the method: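 Secreted TNFα was measured by AlphaLISA after 7 h of culture on human IgG-coated wells (coating at 10 μg/ml), with 5×10^4 cells/well. Before plating, the cells had been treated with compound for 30 min at room temperature. The cells were macrophage-like THP-1, produced by a 2-day exposure to 10 ng/ml IFN-γ.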

IC50 [1] [nM]	IC50 [2] [nM]	Structure (SMILES)
< 10	130 to 200	COCCn1nc(C)c2cc(Nc3nc(N[C@@H]4CCOC[C@@H]4N)c(F)cc3C(N)=O)ccc21 [Example 2-327, 6-(((3R,4R)-3-aminotetrahydro-2H-pyran-4-yl)amino)-5-fluoro-2-((1-(2-methoxyethyl)-3-methyl-1H-indazol-5-yl)amino)nicotinamide]
< 10	65 to 130	COCCn1nc(OC)c2cc(Nc3nc(N[C@@H]4CCOC[C@@H]4N)c(F)cc3C(N)=O)ccc21 [Example 2-329, 6-(((3R,4R)-3-aminotetrahydro-2H-pyran-4-yl)amino)-5-fluoro-2-((3-methoxy-1-(2-methoxyethyl)-1H-indazol-5-yl)amino)nicotinamide]
< 10	130 to 200	COc1nn(C)c2ncc(Nc3nc(N[C@@H]4CCOC[C@@H]4N)c(F)cc3C(N)=O)cc12 [Example 2-334, 6-(((3R,4R)-3-aminotetrahydro-2H-pyran-4-yl)amino)-5-fluoro-2-((3-methoxy-1-methyl-1H-pyrazolo[3,4-b]pyridin-5-yl)amino)nicotinamide]
< 10	65 to 130	CC[C@H](N)[C@H](Nc1nc(Nc2ccc3c(cnn3CC)c2)c(C(N)=O)cc1F)C1CC1 [Example 2-362]
10 to 50	130 to 200	CC[C@H](N)[C@H](Nc1nc(Nc2cncc(-n3cccn3)c2)c(C(N)=O)cc1F)C1CC1 [Example 2-366, 2-((5-(1H-pyrazol-1-yl)pyridin-3-yl)amino)-6-(((1R,2S)-2-amino-1-cyclopropylbutyl)amino)-5-fluoronicotinamide]
< 10	130 to 200	CCn1ncc2c(Nc3nc(N[C@@H]4CCOC[C@@H]4N)c(F)cc3C(N)=O)cc(F)cc21 [Example 2-370, 6-(((3R,4R)-3-aminotetrahydro-2H-pyran-4-yl)amino)-2-((1-ethyl-6-fluoro-1H-indazol-4-yl)amino)-5-fluoronicotinamide]
< 10	130 to 200	CCn1ncc2c(Nc3nc(N[C@H](C4CC4)[C@H](C)N)c(F)cc3C(N)=O)cc(F)cc21 [Example 2-372, 6-(((1R,2S)-2-amino-1-cyclopropylpropyl)amino)-2-((1-ethyl-6-fluoro-1H-indazol-4-yl)amino)-5-fluoronicotinamide]
< 10	130 to 200	COCCn1ncc2c(Nc3nc(N[C@@H]4CCCC[C@@H]4N)c(F)cc3C(N)=O)cc(F)cc21 [Example 2-374, 6-(((1R,2S)-2-aminocyclohexyl)amino)-5-fluoro-2-((6-fluoro-1-(2-methoxyethyl)-1H-indazol-4-yl)amino)nicotinamide]
< 10	65 to 130	COCCn1ncc2c(Nc3nc(N[C@H](C4CC4)[C@H](C)N)c(F)cc3C(N)=O)cc(F)cc21 [Example 2-377, 6-(((1R,2S)-2-amino-1-cyclopropylpropyl)amino)-5-fluoro-2-((6-fluoro-1-(2-methoxyethyl)-1H-indazol-4-yl)amino)nicotinamide]
< 10	65 to 130	CC[C@H](N)[C@@H](C)Nc1nc(Nc2cc(F)cc3c2cnn3CCOC)c(C(N)=O)cc1F [Example 2-378, 6-(((2R,3S)-3-aminopentan-2-yl)amino)-5-fluoro-2-((6-fluoro-1-(2-methoxyethyl)-1H-indazol-4-yl)amino)nicotinamide]
< 10	65 to 130	CCn1ncc2cc(Nc3nc(N[C@H](c4ccccn4)[C@H](C)N)c(F)cc3C(N)=O)ccc21 [Example 2-381]
< 10	65 to 130	C[C@H](N)[C@H](Nc1nc(Nc2cccc3ncccc23)c(C(N)=O)cc1F)C1CC1 [Example 2-404, 6-(((1R,2S)-2-amino-1-cyclopropylpropyl)amino)-5-fluoro-2-(quinolin-5-ylamino)nicotinamide]
< 10	65 to 130	CCn1ncc2cc(Nc3nc(N[C@H](c4ccccc4F)[C@H](C)N)c(F)cc3C(N)=O)ccc21 [Example 2-410, 6-(((1R,2S)-2-amino-1-(2-fluorophenyl)propyl)amino)-2-((1-ethyl-1H-indazol-5-yl)amino)-5-fluoronicotinamide]
< 10	65 to 130	CCn1ncc2cc(Nc3nc(N[C@H](c4cccc(F)c4)[C@H](C)N)c(F)cc3C(N)=O)ccc21 [Example 2-413]
< 10	65 to 130	COc1cc(Nc2nc(N[C@H](c3cccc(F)c3)[C@H](C)N)c(F)cc2C(N)=O)cc(OC)n1 [Example 2-414]
< 10	< 65	CCn1ncc2cc(Nc3nc(N[C@H](c4cccs4)[C@H](C)N)c(F)cc3C(N)=O)ccc21 [Example 2-416]

IC50 [1] [nM]	IC50 [2] [nM]	Structure (SMILES)
10 to 50	130 to 200	Cn1nc(N2CCCC2)c2cc(Nc3nc(N[C@@H]4CCCC[C@@H]4N)c(F)cc3C(N)=O)ccc21 [Example 2-428, 6-(((1R,2S)-2-aminocyclohexyl)amino)-5-fluoro-2-((1-methyl-3-(pyrrolidin-1-1)-1H-indazol-5-yl)amino)nicotinamide]
< 10	65 to 130	Cc1cccc(Nc2nc(N[C@@H]3CCCC[C@@H]3N)c(F)cc2C(N)=O)c1 [Example 2-434, 6-(((1R,2S)-2-aminocyclohexyl)amino)-5-fluoro-2-(m-tolylamino)nicotinamide]
< 10	130 to 200	Cc1ccc(Nc2nc(N[C@@H]3CCCC[C@@H]3N)c(F)cc2C(N)=O)cc1C [Example 2-436, 6-(((1R,2S)-2-aminocyclohexyl)amino)-2-((3,4-dimethylphenyl)amino)-5-fluoronicotinamide]
< 10	65 to 130	NC(=O)c1cc(F)c(N[C@@H]2CCCC[C@@H]2N)nc1Nc1cccc(-n2nccn2)c1 [Example 2-437, 2-((3-(2H-1,2,3-triazol-2-yl)phenyl)amino)-6-(((1R,2S)-2-aminocyclohexyl)amino)-5-fluoronicotinamide]
< 10	< 65	NC(=O)c1cc(F)c(N[C@@H]2CCCC[C@@H]2N)nc1Nc1cccc(-n2ccnn2)c1 [Example 2-438, 2-((3-(1H-1,2,3-triazol-1-yl)phenyl)amino)-6-(((1R,2S)-2-aminocyclohexyl)amino)-5-fluoronicotinamide]
< 10	65 to 130	NC(=O)c1cc(F)c(N[C@@H]2CCCC[C@@H]2N)nc1Nc1cccc(Cl)c1 [Example 2-439, 6-(((1R,2S)-2-aminocyclohexyl)amino)-2-((3-chlorophenyl)amino)-5-fluoronicotinamide]
< 10	130 to 200	NC(=O)c1cc(F)c(N[C@@H]2CCCC[C@@H]2N)nc1Nc1cccc(F)c1 [Example 2-440, 6-(((1R,2S)-2-aminocyclohexyl)amino)-5-fluoro-2-((3-fluorophenyl)amino) nicotinamide]
< 10	130 to 200	NC(=O)c1cc(F)c(N[C@@H]2CCCC[C@@H]2N)nc1Nc1ccc(F)cc1 [Example 2-441, 6-(((1R,2S)-2-aminocyclohexyl)amino)-5-fluoro-2-((4-fluorophenyl)amino) nicotinamide]
< 10	65 to 130	CC(=O)c1cccc(Nc2nc(N[C@@H]3CCCC[C@@H]3N)c(F)cc2C(N)=O)c1 [Example 2-442, 2-((3-acetylphenyl)amino)-6-(((1R,2S)-2-aminocyclohexyl)amino)-5-fluoronicotinamide]
< 10	65 to 130	COCCn1ncc2cc(Nc3nc(N[C@H](c4cccc(F)c4)[C@H](C)N)c(F)cc3C(N)=O)ccc21 [Example 2-454, 6-(((1R,2S)-2-amino-1-(3-fluorophenyl)propyl)amino)-5-fluoro-2-((1-(2-methoxyethyl)-1H-indazol-5-yl)amino)nicotinamide]
< 10	< 65	Cc1cnn(-c2cncc(Nc3nc(N[C@@H]4CCCC[C@@H]4N)c(F)cc3C(N)=O)c2)c1 [Example 2-472, 6-(((1R,2S)-2-aminocyclohexyl)amino)-5-fluoro-2-((5-(4-methyl-1H-pyrazol-1-yl)pyridin-3-yl)amino)nicotinamide]
< 10	130 to 200	CC[C@@H](Nc1nc(Nc2cccc(C)c2)c(C(N)=O)cc1F)[C@H](C)N [Example 2-474, 6-(((2S,3R)-2-aminopentan-3-yl)amino)-5-fluoro-2-(m-tolylamino)nicotinamide]
< 10	65 to 130	CC[C@@H](Nc1nc(Nc2cccc(-n3nccn3)c2)c(C(N)=O)cc1F)[C@H](C)N [Example 2-475, 2-((3-(2H-1,2,3-triazol-2-yl)phenyl)amino)-6-(((2S,3R)-2-aminopentan-3-yl)amino)-5-fluoronicotinamide]
< 10	65 to 130	CC[C@@H](Nc1nc(Nc2cccc(-n3ccnn3)c2)c(C(N)=O)cc1F)[C@H](C)N [Example 2-476, 2-((3-(1H-1,2,3-triazol-1-yl)phenyl)amino)-6-(((2S,3R)-2-aminopentan-3-yl)amino)-5-fluoronicotinamide]
< 10	130 to 200	CC[C@@H](Nc1nc(Nc2ccc(C)c(C)c2)c(C(N)=O)cc1F)[C@H](C)N [Example 2-477, 6-(((2S,3R)-2-aminopentan-3-yl)amino)-2-((3,4-dimethylphenyl)amino)-5-fluoronicotinamide]
< 10	65 to 130	CC[C@@H](Nc1nc(Nc2cccc(C(C)=O)c2)c(C(N)=O)cc1F)[C@H](C)N [Example 2-478, 2-((3-acetylphenyl)amino)-6-(((2S,3R)-2-aminopentan-3-yl)amino)-5-fluoronicotinamide]

Reference: patent publication US9051310B2, “Nicotinamide derivative or salt thereof” (FUJIFILM Corporation, priority 2011, dated 2015)
